# Columns and labels:
# HDAC6 = biological target: T1, HDAC6 (Homo sapiens, UniProt Q9UBN7); test: HDAC fluorometric activity assay, HDAC6
# T1 sequence (Q9UBN7 1-1215): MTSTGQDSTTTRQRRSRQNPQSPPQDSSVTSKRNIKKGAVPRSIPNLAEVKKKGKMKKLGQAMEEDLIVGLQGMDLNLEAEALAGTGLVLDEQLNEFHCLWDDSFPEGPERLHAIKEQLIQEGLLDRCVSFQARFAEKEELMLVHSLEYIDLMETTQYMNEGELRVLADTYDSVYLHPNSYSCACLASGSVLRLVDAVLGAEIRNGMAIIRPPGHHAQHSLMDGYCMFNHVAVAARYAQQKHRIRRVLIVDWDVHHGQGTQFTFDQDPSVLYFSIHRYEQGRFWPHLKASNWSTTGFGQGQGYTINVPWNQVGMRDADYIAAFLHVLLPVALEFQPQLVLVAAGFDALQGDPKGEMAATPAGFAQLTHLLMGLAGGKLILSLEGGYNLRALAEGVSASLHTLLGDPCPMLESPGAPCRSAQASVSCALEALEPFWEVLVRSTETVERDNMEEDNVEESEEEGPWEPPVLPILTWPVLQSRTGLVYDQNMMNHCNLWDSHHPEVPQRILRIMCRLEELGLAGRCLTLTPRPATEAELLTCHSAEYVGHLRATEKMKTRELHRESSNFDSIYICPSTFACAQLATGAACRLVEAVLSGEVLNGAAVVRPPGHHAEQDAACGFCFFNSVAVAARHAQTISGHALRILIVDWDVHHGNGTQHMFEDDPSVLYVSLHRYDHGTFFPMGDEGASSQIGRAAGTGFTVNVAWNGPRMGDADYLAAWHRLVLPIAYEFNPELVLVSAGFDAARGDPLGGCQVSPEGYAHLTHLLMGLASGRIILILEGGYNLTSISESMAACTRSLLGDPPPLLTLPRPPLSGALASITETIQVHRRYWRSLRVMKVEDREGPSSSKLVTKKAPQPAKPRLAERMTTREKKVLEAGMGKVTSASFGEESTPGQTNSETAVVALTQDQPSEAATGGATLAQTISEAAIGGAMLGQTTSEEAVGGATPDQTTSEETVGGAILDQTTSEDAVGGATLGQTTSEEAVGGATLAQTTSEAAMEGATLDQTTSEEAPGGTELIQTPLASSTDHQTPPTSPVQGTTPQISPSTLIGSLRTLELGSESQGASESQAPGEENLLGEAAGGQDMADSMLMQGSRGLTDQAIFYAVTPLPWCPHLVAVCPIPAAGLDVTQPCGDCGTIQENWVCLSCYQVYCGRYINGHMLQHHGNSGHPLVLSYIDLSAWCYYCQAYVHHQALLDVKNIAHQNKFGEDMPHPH
# HDAC9 = HDAC9 (Homo sapiens, UniProt Q9UKV0); test: HDAC fluorometric activity assay, HDAC9
# Chain of HDAC9 (Q9UKV0 whole entry): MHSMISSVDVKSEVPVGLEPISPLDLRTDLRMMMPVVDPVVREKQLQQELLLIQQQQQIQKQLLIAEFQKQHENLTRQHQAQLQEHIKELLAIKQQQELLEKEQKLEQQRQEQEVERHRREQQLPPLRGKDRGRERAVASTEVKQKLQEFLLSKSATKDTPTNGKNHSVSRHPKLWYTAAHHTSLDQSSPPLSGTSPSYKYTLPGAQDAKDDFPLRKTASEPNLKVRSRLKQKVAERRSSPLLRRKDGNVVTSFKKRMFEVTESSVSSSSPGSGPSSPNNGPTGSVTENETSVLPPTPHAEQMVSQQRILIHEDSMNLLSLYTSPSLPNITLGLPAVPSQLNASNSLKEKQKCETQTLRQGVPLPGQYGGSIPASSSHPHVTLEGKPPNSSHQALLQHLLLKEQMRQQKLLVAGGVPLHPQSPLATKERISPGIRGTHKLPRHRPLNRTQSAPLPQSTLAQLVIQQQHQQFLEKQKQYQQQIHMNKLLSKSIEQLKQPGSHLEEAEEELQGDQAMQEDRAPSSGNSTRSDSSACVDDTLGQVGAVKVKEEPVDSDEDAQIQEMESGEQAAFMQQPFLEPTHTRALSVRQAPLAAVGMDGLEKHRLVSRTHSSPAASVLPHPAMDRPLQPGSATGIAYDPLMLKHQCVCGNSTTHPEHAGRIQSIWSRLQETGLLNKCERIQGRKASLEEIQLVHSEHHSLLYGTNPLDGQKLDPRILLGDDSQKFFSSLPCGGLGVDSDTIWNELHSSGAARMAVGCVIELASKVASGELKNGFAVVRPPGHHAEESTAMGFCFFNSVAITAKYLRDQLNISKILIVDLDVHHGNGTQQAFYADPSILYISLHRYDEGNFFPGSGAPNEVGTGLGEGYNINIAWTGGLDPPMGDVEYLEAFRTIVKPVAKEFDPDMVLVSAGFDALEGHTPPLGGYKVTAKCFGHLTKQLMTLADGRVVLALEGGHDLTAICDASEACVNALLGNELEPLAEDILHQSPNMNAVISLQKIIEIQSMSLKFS
# HDAC5 = HDAC5 (Homo sapiens, UniProt Q9UQL6); test: HDAC fluorometric activity assay, HDAC5; settings: IC50 Class IIa HDAC5, fluorogenic HDAC class IIa substrate 10 μM
# Chain of HDAC5 (Q9UQL6 whole entry): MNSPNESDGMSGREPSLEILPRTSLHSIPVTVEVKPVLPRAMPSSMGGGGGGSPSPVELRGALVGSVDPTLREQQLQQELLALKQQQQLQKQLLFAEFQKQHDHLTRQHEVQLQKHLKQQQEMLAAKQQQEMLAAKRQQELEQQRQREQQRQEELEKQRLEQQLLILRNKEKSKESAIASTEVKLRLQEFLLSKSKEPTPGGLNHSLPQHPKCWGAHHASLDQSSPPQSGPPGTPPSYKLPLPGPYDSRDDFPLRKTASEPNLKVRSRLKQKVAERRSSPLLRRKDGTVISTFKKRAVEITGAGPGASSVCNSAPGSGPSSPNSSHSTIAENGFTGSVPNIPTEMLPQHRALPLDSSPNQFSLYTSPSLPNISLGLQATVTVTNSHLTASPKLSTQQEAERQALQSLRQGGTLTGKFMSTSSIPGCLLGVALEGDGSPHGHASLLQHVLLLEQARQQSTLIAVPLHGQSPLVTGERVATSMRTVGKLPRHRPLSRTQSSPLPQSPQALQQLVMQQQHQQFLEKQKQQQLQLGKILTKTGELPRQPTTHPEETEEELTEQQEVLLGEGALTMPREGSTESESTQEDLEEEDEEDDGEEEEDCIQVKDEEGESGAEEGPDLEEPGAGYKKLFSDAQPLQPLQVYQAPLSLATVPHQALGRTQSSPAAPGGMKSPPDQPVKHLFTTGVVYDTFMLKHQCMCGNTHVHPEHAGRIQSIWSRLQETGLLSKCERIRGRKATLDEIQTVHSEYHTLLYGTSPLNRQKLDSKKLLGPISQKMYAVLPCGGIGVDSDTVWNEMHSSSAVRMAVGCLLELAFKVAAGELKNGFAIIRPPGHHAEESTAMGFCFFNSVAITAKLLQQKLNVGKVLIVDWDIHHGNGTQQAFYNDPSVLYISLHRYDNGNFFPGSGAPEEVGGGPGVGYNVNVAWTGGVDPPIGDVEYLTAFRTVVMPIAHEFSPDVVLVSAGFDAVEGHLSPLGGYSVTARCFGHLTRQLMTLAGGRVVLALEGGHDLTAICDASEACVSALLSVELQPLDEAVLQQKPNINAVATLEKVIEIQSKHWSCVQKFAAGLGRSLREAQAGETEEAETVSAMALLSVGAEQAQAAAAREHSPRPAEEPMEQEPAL
# HDAC4 = biological target: T2, HDAC4 (Homo sapiens, UniProt P56524); test: HDAC fluorometric activity assay, HDAC4; format: biochemical; settings: Boc-Lys(TFA)-AMC 10 μM; read-out: IC50 Class IIa HDAC4
# T2 construct: Genes encoding HDAC4 (residues 648–1057) flanked with NdeI and EcoRI sites; made in house; host or cells: E. coli BL21(DE3)
# T2 sequence (P56524 648-1057): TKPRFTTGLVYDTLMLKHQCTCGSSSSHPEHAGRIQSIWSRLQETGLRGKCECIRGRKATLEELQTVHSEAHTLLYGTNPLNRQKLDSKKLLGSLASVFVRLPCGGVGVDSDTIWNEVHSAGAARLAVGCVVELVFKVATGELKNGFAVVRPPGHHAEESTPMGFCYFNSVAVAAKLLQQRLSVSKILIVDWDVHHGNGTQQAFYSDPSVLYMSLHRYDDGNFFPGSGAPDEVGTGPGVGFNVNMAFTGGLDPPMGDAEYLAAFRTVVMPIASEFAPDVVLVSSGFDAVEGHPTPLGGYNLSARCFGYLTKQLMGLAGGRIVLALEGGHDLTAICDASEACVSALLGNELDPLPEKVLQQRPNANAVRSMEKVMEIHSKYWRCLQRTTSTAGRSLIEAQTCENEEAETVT
# Description: Proteins were expressed in BL21(DE3) cells by overnight induction with IPTG (1 mM) at 20–25°C and purified from cleared cell lysates by sequential chromatography on Ni-Sepharose 6 fast flow, Mono Q 5/50 GL, and Superdex 75 10/300 GL columns (GE Healthcare). Protein concentrations were quantified with Bradford Reagent (Bio-Rad).
# Enzyme, inhibitors and substrate were diluted with HDAC buffer (15 mM Tris-HCl pH 8.1, 0.25 mM EDTA, 250 mM NaCl, 10% v:v glycerol). Briefly, 10 μL diluted HDAC, i.e., HeLa nuclear extract (Enzo), HDAC6 (BPS), HDAC4, HDAC5 (BPS), HDAC7 (BPS) and HDAC9 (BPS), as well as 50 μL of testing compounds at different concentrations were added to each well of a 96-well microtiter plate and pre-incubated at 30°C for 5 min. […] The fluorescence in wells without test compounds (0.1% DMSO, negative control) was set as 100% enzymatic activity and the fluorescence in wells with enzyme eliminated was set as 0% enzymatic activity. The fluorescence ratio of test compounds to negative control was defined as percentage of remaining enzyme activity. The IC50 values were calculated by linear regression of the data. All experiments were performed in triplicate.
# HeLa nuclear HDACs = test: HDAC fluorometric activity assay, HeLa nuclear extract; settings: read-out: IC50 HeLa Nuclear HDACs; Boc-Lys(Ac)-AMC 10 μM
SMILES,IC50 (HDAC6) [µM],IC50 (HDAC9) [µM],IC50 (HDAC5) [µM],IC50 (HDAC4) [µM],IC50 (HeLa nuclear HDACs) [µM]
O=C(CCCCc1ccccc1)CCc1ccc(O)c(Br)c1 [Compound 5h],> 40,> 40,> 40,> 40,> 40
O=C(CCCCc1ccccc1)CCc1ccc(O)c(F)c1 [Compound 5f],> 40,> 40,> 40,> 40,> 40
O=C(CCCCc1ccccc1)CCc1ccc(O)cc1 [Compound 5b],> 40,> 40,> 40,> 40,> 40
O=C(CCCc1ccccc1)CCc1ccc(O)c(O)c1 [Compound 8d],> 40,17.3 ± 3.2,7.5 ± 0.3,> 40,> 40
O=C(/C=C/c1cccc(O)c1)CCCCc1ccccc1 [Compound 4d],> 40,> 40,> 40,> 40,> 40
O=C(/C=C/c1ccccc1)CCCCc1ccccc1 [Compound 4a],> 40,> 40,> 40,> 40,> 40
O=C(/C=C/c1ccc(O)c(F)c1)CCCCc1ccccc1 [Compound 4f],> 40,> 40,> 40,> 40,> 40
O=C(CCCCc1ccccc1)CCc1cccc(O)c1 [Compound 5d],> 40,> 40,> 40,> 40,> 40
O=C(CCCCc1ccccc1)CCc1ccccc1 [Compound 5a],> 40,> 40,> 40,> 40,> 40
O=C(CCc1ccc(O)c(O)c1)c1ccccc1 [Compound 8a],> 40,14.2 ± 1.6,6.2 ± 0.4,> 40,> 40
O=C(CCCCc1ccccc1)CCc1ccc(O)c(Cl)c1 [Compound 5g],> 40,> 40,> 40,29.9 ± 2.3,> 40
O=C(/C=C/c1ccc(O)c([N+](=O)[O-])c1)CCCCc1ccccc1 [Compound 4i],> 40,> 40,36.1 ± 3.7,> 40,> 40
O=C(CCCCc1ccccc1)CCc1ccc(O)c(O)c1 [Compound 5c],> 40,5.3 ± 0.3,3.8 ± 0.1,18.1 ± 0.8,> 40
O=C(/C=C/c1ccc(O)c(Br)c1)CCCCc1ccccc1 [Compound 4h],> 40,> 40,> 40,> 40,> 40
O=C(CCc1ccc(O)c(O)c1)Cc1ccccc1 [Compound 8b],> 40,37.1 ± 0.9,9 ± 0.2,> 40,> 40
O=C(CCCCc1ccccc1)CCc1cccc(O)c1O [Compound 5e],> 40,9.3 ± 0.8,4.8 ± 0.4,35.9 ± 0.1,> 40

# Next, values leading:
IC50 (HDAC6) [µM],IC50 (HDAC9) [µM],IC50 (HDAC5) [µM],IC50 (HDAC4) [µM],IC50 (HeLa nuclear HDACs) [µM],SMILES
> 40,> 40,> 40,> 40,> 40,O=C(/C=C/c1ccc(O)cc1)CCCCc1ccccc1 [Compound 4b]
29.4 ± 1.5,18.1 ± 0.4,14.6 ± 0.2,38.8 ± 0.1,> 40,O=C(/C=C/c1cccc(O)c1O)CCCCc1ccccc1 [Compound 4e]
> 40,> 40,> 40,> 40,> 40,O=C(/C=C/c1ccc(O)c(Cl)c1)CCCCc1ccccc1 [Compound 4g]
> 40,33.8 ± 3.8,8.2 ± 0.1,> 40,> 40,O=C(CCc1ccccc1)CCc1ccc(O)c(O)c1 [Compound 8c]
37.5 ± 1.6,17.3 ± 0.1,12.6 ± 2.3,35 ± 2.8,> 40,O=C(/C=C/c1ccc(O)c(O)c1)CCCc1ccccc1 [Compound 7d]
> 40,> 40,> 40,> 40,> 40,COc1cc(CCC(=O)CCCCc2ccccc2)ccc1O [Compound 5i]
> 40,> 40,> 40,> 40,> 40,COc1cc(/C=C/C(=O)CCCCc2ccccc2)ccc1O [Compound 4k]
18.3 ± 0.9,17.6 ± 0.3,15.9 ± 1.5,30.5 ± 0.7,> 40,O=C(/C=C/c1ccc(O)c(O)c1)CCCCc1ccccc1 [Compound 4c]
37.2 ± 1.2,29.2 ± 1.7,13.7 ± 0.8,39.8 ± 0.2,> 40,O=C(/C=C/c1ccc(O)c(O)c1)Cc1ccccc1 [Compound 7b]
34.5 ± 2.2,36.8 ± 0.7,15.6 ± 0.4,38.3,> 40,O=C(/C=C/c1ccc(O)c(O)c1)CCc1ccccc1 [Compound 7c]
26.2 ± 4.3,18.4 ± 0.6,13.1 ± 4.4,31.1 ± 0.8,> 40,O=C(/C=C/c1ccc(O)c(O)c1)c1ccccc1 [Compound 7a]
11.9 ± 0.2,15.4 ± 1.8,7.1 ± 0.2,> 40,> 40,O=C(/C=C/c1cc(O)c(O)c(O)c1)CCCCc1ccccc1 [Compound 4j]

# — PMC6037852, “Design of Diarylheptanoid Derivatives as Dual Inhibitors Against Class IIa Histone Deacetylase and β-amyloid Aggregation” (Frontiers in Pharmacology, 2018)
